Data: patent US20120101087A1, “Generation of Combinatorial Synthetic Libraries and Screening for Novel Proadhesins and Nonadhesins” (priority 2007, published 2012)
Read-outs that look alike come from different tables or passages of the source.

Columns and labels:
[1] = system: MRSA Staphylococcus aureus; assay: Anti-adhesion assay for MRSA Staphylococcus aureus; assay type: cell-based; conditions: for IC50: read-out: IC50 anti-adhesion MRSA Staphylococcus aureus; for ICMAX (μM), IC100: maximal inhibition given as IC100
[2] = Solubility in water (solubility classes of screening compounds); assay type: physicochemical
P. aerug. = assay: Effectiveness towards P. aerug. (cystic fibrosis application, IC50 % wt/vol); assay type: cell-based, Pseudomonas aeruginosa
Staphylococcus areus = assay: Direct binding assay (DART TOF-MS) to Staphylococcus aureus; conditions: FIG. 7
Colletotrichum acutatum = assay: Petri dish assay for activity against Colletotrichum acutatum (spore adhesion to polystyrene)
[3] = system: Dengue 2 (DENV-2 strain NG-2); assay: microbe, parasite or virus in culture; assay type: cell-based, Dengue virus
Dengue virus = assay: Direct binding assay (DART TOF-MS) to Dengue virus; conditions: FIG. 6
Source text: The virus particles were collected and fixed in 100% (USP) ethanol prior to DART TOF-MS analysis. The closed end of a borosilicate glass capillary tube was immersed in the virion solution and passed through the DART He plasma to obtain mass spectra of virion surface-bound chemistries. […] The same conditions were used to assess the binding of composition here to bacterial species.

S. aureus = assay: Effectiveness towards S. aureus (IC50 % wt/vol); assay type: cell-based, Staphylococcus aureus

## CN(CCCNC(=O)c1ccc(O)cc1)CCCNC(=O)c1ccc(O)cc1 [IV]
[1]; Staphylococcus aureus, MRSA
  IC50: 1.5 µM
[1]; Staphylococcus aureus, MRSA, read-out: ICMAX (μM), IC90
  IC90: 10 µM

## CNC(=O)C(Cc1ccc(OS(C)(=O)=O)cc1)NC(=O)COCC(=O)Nc1cccc(OS(C)(=O)=O)c1 (stereo not shown) [Compound A02]
[2]
  Solubility in water: insoluble in water

## CCN(CCOC(=O)/C=C/c1ccc(O)cc1)Cc1cc(Cl)ccc1O [Compound I]
P. aerug.
  IC50 (% wt/vol), pathogen P. aerug.: 0.001 % wt/vol
Staphylococcus areus
  Direct binding to Staphylococcus areus (DART-MS peak): binds to the bacteria
Colletotrichum acutatum
  IC50 (% wt/vol), pathogen C. acut.: 0.004 % wt/vol
[3]; FIG. 6, virions from direct binding assay
  Dengue infection when compound is bound to virus: inhibited
[1]; FIG. 7
  Adhesion of Staphylococcus areus when compound is bound: blocks adhesion
[1]; maximal inhibition printed as IC70, value is the concentration
  ICMAX (μM), IC70: IC70 - 120 μM
Dengue virus
  Direct binding to Dengue virus (DART-MS peak): direct binding

## CN(CCCNC(=O)c1ccc(O)cc1)CCCNC(=O)c1ccc2cc(O)ccc2c1 [III]
P. aerug.
  IC50 (% wt/vol), pathogen P. aerug.: 0.001 % wt/vol
S. aureus
  IC50 (% wt/vol), pathogen S. aure.: <0.017 % wt/vol
Colletotrichum acutatum
  IC50 (% wt/vol), pathogen C. acut.: <0.005 % wt/vol
[1]; Staphylococcus aureus, MRSA
  IC50: 7.1 µM
[1]; value is the concentration
  ICMAX (μM), IC100: IC100 - 100 μM

## CNC(=O)C(Cc1ccc(OS(=O)(=O)C(F)(F)F)cc1)NC(=O)COCC(=O)Nc1cccc(OS(=O)(=O)C(F)(F)F)c1 (stereo not shown) [Compound B02]
[2]
  Solubility in water: insoluble in water

## O=C(c1ccc(O)cc1)N1CCCN(C(=O)c2ccc3cc(O)ccc3c2)CC1 [VI]
P. aerug.
  IC50 (% wt/vol), pathogen P. aerug.: <0.005 % wt/vol
S. aureus
  IC50 (% wt/vol), pathogen S. aure.: <0.017 % wt/vol
Colletotrichum acutatum
  IC50 (% wt/vol), pathogen C. acut.: <0.005 % wt/vol
[3]; Dengue virus, DENV2, LLC-MK2, read-out: IC50 Dengue 2, anti-infection (adhesion)
  IC50: 114 µM
[1]; Staphylococcus aureus, MRSA
  IC50: 2.5 µM
[1]; value is the concentration
  ICMAX (μM), IC100: IC100 - 10 μM

## O=C(O)/C=C/c1ccc(OS(=O)(=O)O)cc1 [Zosteric Acid, reference compound]
[3]; from graph of % inhibition versus concentration, read-out: IC50 Dengue 2, anti-infection (adhesion)
  IC50: 1190 µM
[1]; value is the concentration
  ICMAX (μM), IC100: IC100 - 90 μM
[1]
  IC50: 24.8 µM
